The target of data set [1] is human rec ACSS2 (Homo sapiens (Human), UniProt Q9NR19). Put plainly: Biochemical activity ACSS2 assay (AMP-Glo). The conditions noted are these: human recombinant ACSS2, AMP-Glo, 180 min at 37° C. From the text:
Biochemical Activity ACSS2 Assay (IC50 ACSS2 Biochemical)
The biochemical activity assay for ACSS2 is based on the detection of released AMP by AMP-Glo™ Assay kit (Promega, Madison). The assay is run in three steps: the enzymatic reaction in which human rec ACSS2 activates acetate with ATP and Coenzyme A as cosubstrates to acetyl-CoA thereby releasing AMP and the detection reaction of AMP by AMP Glo assay in which after the destruction of the residual ATP with AMP Glo reagent 1 produced AMP is converted to ATP that is measured in a luciferase assay system (detection reagent). The ACSS2 activity correlates with the detected luminescence signal.
The assay was performed in Perkin Elmer 384 well white Proxiplates in a total volume of 8 μl.
1 nM (fc)C-term myc tagged ACSS2 (human, recombinant, Origene, Rockville, US) and a mixture of 100 μM (fc) ATP, 100 μM (fc) Coenzyme A and 500 μM (fc) sodium acetate were incubated in a total volume of 5 μl (50 mM Hepes, 1 mM Mg-chloride, 150 mM NaCl, 1 mM DTT, 0.01% (w/v) BSA, 0.3% DMSO, pH 7.5) in the absence or presence of the test compound (10 dilution concentrations, start conc 30 μM) for 180 min at 37° C. The reaction was stopped and residual ATP destroyed by the addition of 1 μl AMP Glo reagent solution (Promega, Madison, US). After 1h incubation at room temperature 2 μl of AMP Glo detection reagent was added and the assay was incubated for 0.75 hr at room temperature. The luminescence signal was measured with an Envision multimode reader (Perkin Elmer LAS Germany GmbH) at 700 nm in luminescence mode. The full value used was the inhibitor-free reaction. The pharmacological zero value was generated by addition of ACSS2 inhibitor (Ac-CoA Synthase Inhibitor—CAS 508186-14-9-Calbiochem) in a final concentration of 5 μM. The inhibitory values (IC50) were determined using the program Assay Analyzer® from GeneData.

The target in data set [2] is ACSS2 (Homo sapiens (Human), UniProt Q9NR19). Put plainly: Cellular assay of 14C acetate incorporation into histones (IC50 ACSS2 cellular histone). The conditions noted are these: HCT-15 cells. The format is cell-based. An excerpt: Cellular Assay of ^14C Acetate Incorporation into Histones (IC50 ACSS2 Cellular Histone)
ACSS2, sequence (Q9NR19 whole entry): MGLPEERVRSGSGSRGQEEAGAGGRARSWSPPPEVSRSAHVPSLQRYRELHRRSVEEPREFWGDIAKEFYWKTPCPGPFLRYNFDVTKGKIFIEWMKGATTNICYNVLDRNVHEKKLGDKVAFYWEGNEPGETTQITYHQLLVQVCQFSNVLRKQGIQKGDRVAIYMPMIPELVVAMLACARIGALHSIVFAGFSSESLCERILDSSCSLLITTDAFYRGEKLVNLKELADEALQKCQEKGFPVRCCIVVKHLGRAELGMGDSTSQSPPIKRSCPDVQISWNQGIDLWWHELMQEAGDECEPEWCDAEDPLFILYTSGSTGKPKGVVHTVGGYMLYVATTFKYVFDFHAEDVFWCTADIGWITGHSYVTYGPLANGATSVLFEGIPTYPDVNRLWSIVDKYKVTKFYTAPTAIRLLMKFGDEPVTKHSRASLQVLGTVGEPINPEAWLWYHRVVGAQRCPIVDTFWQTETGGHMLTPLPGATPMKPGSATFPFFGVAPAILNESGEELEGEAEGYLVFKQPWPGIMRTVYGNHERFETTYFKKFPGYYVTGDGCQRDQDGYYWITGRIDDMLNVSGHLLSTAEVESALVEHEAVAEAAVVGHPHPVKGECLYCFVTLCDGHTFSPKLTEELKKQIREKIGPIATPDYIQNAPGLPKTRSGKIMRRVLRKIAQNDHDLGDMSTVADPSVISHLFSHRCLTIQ
This protocol describes a cellular assay capable to quantify endogenous histone acetylation activity in the human HCT-15 cancer cell line following the incorporation of extracellularly administered radiolabeled ^14C acetate with a scintillation based read out on acid extracted histones.
HCT-15 cells are trypsinized, washed and suspended in DMEM culture medium supplemented with penicillin/streptomycin (100 U/mL), sodium pyruvate (1 mM), and 10% FBS
Compounds serial dilutions are prepared in 96-well V-bottom microplate from 10 mM stock solutions in DMSO. From these dilutions 0.5 μl are transferred to a fresh plate including pure DMSO as negative control. The dilutions are prepared such, that the final concentration in the assay is 1/400 of the concentration in the serial dilution. The final DMSO concentration in the assay is 0.25%.
The cell suspension is seeded at densities of 2×10^5 cells per 170 μl into individual wells of a 96 well plate each containing 0.5 μl aliquots of compound serial dilutions and are kept for 1 h in a cell incubator. To each well 30 μL of a mixture containing 0.5 mCi/mL of ^14C-acetate with full medium are added. Then, the wells are incubated for 3 hrs in the cell incubator.
Further steps of the procedure should be conducted on ice or instrumentations precooled to 4° C. Cells are sedimented in the 96-well V-bottom microplate by centrifugation (Eppendorf 5804 R) at 1200 rpm for 5 min. The supernatant is removed and the cells are washed twice with 200 μL of PBS-NaB (5 mM sodium butyrate) buffer by iterative resuspension and centrifugation. Finally, the cells are resuspended in 50 μL of TEB (PBS-NaB+0.5% Triton X-100) and left on ice for 10 minutes. After centrifugation at 2300 rpm for 10 minutes at 4° C. the supernatant is removed, the remaining pellet is suspended in 50 μL of 0.2M HCl and incubated over night at 4° C. After incubation the well plate is shaken for 2 minutes in a MTP plate shaker set to 1200 rpm and then centrifuged at 3700 rpm for 10 mins. The lysate is carefully aspirated (˜43 μL) and transferred into a white MTP plate (Greiner bio-one 65509). 90 μL of Ultima Gold XR scintillation cocktail are added and the plates are sealed with a transparent cover tape before mixing vigorously using plate shaker set to 1200 rpm. Radioactivity from ^14C incorporation in the wells is measured as CPM count in a MicroBeta Trilux luminescence counter.

The test system of data set [3] is CHO-K1 cells. The data set can be described thus: Micronucleus assay (MNT) in vitro. Also on record: key: A: negative, putative negative (micronuclei detected beyond threshold of 60% cyctotoxicity); B: positive. The conditions noted are these: 24 hrs treatment, 0.2 μM to 100 μM. The data set is classed as cell-based. The procedure:
The in vitro MNT assay is performed in CHO-K1 cells due to their stable and well-characterized karyotype, high sensitivity and suitability for a high content imaging approach. They have a basal spontaneous micronucleus frequency of 3-4%.
24 hrs after plating CHO-K1 cells are treated with test compounds for 24 hrs (in duplicates; fixed concentration ranges from 0.2 μM to 100 μM in 2-fold dilution steps). After a medium change cells are incubated for 24 hrs with Cytochalasin B to block cytokinesis and are then fixed and nuclei/micronuclei visualized with a DNA stain. Images are acquired with the Molecular Devices high content imagers IXU or IXM and are analyzed with the dedicated MetaXpress software micronucleus module. Criteria for scoring of micronuclei (MN) are the following: • diameter of the MN should be less than ⅓ of the main nucleus • MN should be separated from or marginally overlap with main nucleus (=no blebs) • MN should have similar staining as the main nucleus
At least 1000 binucleated cells are evaluated per treatment replicate. Mitomycin C is used as reference stimulator of micronucleus formation. Cytotoxicity is evaluated in parallel and defined by comparing total nuclei count in compound-treated samples to neutral control samples treated with vehicle only (1% DMSO) (100% cytotoxicity means all cells are dead or lost).
A test compound is regarded as POSITIVE if generation of micronuclei and exhibition of less than 60% cytotoxicity at the same concentration can be observed.
Compounds are scored only in the soluble concentration range.
Experimental data of the compounds shown in Table 1 in the MNT assay are shown in Table 2 below and classified in the following groups: […]

human rec ACSS2, sequence (Q9NR19 whole entry): as above

Turning to `[2H]c1c([2H])c([2H])c(C(O)(c2c([2H])c([2H])c([2H])c([2H])c2[2H])c2nc3nc(OC)c(-c4nnn[nH]4)cc3n2CC)c([2H])c1[2H]` [Compound 63, [1-ethyl-5-methoxy-6-(1H-1,2,3,4-tetrazol-5-yl)-1H-imidazo[4,5-b]pyridin-2-yl]bis[(2,3,4,5,6-^2H5)phenyl]methanol], the IC50 in data set [1] is 0.01 to 1 nM; in data set [2], 1 to 10 nM.
Consider `CCn1c(C(O)(c2ccccc2)c2ccccn2)nc2nc(OC)c(-c3nnn[nH]3)cc21` (single isomer, unassigned) [Compound 41, [1-ethyl-5-methoxy-6-(1H-1,2,3,4-tetrazol-5-yl)-1H-imidazo[4,5-b]pyridin-2-yl](phenyl)(pyridin-2-yl)methanol], for which the IC50 in data set [1] is 10 to 100 nM; in data set [2], 1 to 10 nM.
Consider `CCc1c(C(O)(c2ccccc2)c2ccccn2)nc2cc(Cl)c(-c3nnn[nH]3)cn12` (single isomer, unassigned) [Compound 7, [7-chloro-3-ethyl-6-(1H-tetrazol-5-yl)imidazo[1,2-a]pyridin-2-yl]-phenyl-(2-pyridyl)methanol], for which the IC50 in data set [1] was 10 to 100 nM. Moreover, in data set [3], the MNT result is recorded as “A”.
With `CCn1c(C(O)(c2ccccc2)c2cccnc2)nc2nc(OC)c(-c3nnn[nH]3)cc21` (racemic) [Compound 44, [1-ethyl-5-methoxy-6-(1H-1,2,3,4-tetrazol-5-yl)-1H-imidazo[4,5-b]pyridin-2-yl](phenyl)(pyridin-3-yl)methanol], the values for the IC50 in data set [1] and in data set [2] were 10 to 100 nM and 100 to 10000 nM, respectively.
Taken in the same sequence, the figures for `CCn1c(C(O)(c2ccccc2)c2ccncn2)nc2nc(OC)c(-c3nnn[nH]3)cc21` (racemic) [Compound 25, [1-ethyl-5-methoxy-6-(1H-1,2,3,4-tetrazol-5-yl)-1H-imidazo[4,5-b]pyridin-2-yl](phenyl)(pyrimidin-4-yl)methanol] were 1 to 10 nM and 1 to 10 nM.
Take `CCc1c(C(O)(c2ccccc2)c2ccn(C)n2)nc2cc(OC)c(-c3nnn[nH]3)cn12` (single isomer, unassigned) [Compound 18, [3-Ethyl-7-methoxy-6-(1H-tetrazol-5-yl)-imidazo[1,2-a]pyridin-2-yl]-(1-methyl-1H-pyrazol-3-yl)-phenyl-methanol]: in data set [1], the 50% inhibitory concentration (IC50) is 10 to 100 nM.
As for `CCn1c(C(O)(c2ccccc2F)c2ccc(OC(F)F)cc2F)nc2nc(OC)c(-c3nnn[nH]3)cc21` (racemic) [Compound 54, [4-(difluoromethoxy)-2-fluorophenyl][1-ethyl-5-methoxy-6-(1H-1,2,3,4-tetrazol-5-yl)-1H-imidazo[4,5-b]pyridin-2-yl](2-fluorophenyl)methanol], the IC50 in data set [1] and in data set [2] was 1 to 10 nM each time.
`COc1nc2nc(C(O)(c3ccccc3)c3ccccc3)n(C)c2cc1-c1nnn[nH]1` [Compound 24, [5-methoxy-1-methyl-6-(1H-1,2,3,4-tetrazol-5-yl)-1H-imidazo[4,5-b]pyridin-2-yl]diphenylmethanol]: the half-maximal inhibitory concentration (IC50) in data set [1] is 0.01 to 1 nM.
In the case of `CCc1c(C(O)(c2ccccc2)c2ncccn2)nc2cc(OC)c(-c3nnn[nH]3)cn12` (single isomer, unassigned) [Compound 14, [3-Ethyl-7-methoxy-6-(1H-tetrazol-5-yl)-imidazo[1,2-a]pyridin-2-yl]-phenyl-pyrimidin-2-yl-methanol], the IC50 in data set [1] was 10 to 100 nM; in data set [2], 100 to 10000 nM.
Take `CCc1c(C(O)(c2ccccc2)c2ncccn2)nc2cc(OC)c(-c3nnn[nH]3)cn12` (single isomer, unassigned) [Compound 15, [3-Ethyl-7-methoxy-6-(1H-tetrazol-5-yl)-imidazo[1,2-a]pyridin-2-yl]-phenyl-pyrimidin-2-yl-methanol]: the IC50 in data set [1] is 100 to 10000 nM.
On the same count and under the same terms, the value for `CCc1cc2nc(C(O)(c3ccccc3)c3ccccc3)c(CC)n2cc1-c1nnn[nH]1` [Compound 1, [3,7-diethyl-6-(1 H-1,2,3,4-tetrazol-5-yl)imidazo[1,2-a]pyridin-2-yl]diphenylmethanol] was 1 to 10 nM.
With `CCn1c(C(O)(c2ccccc2)c2ccc(OC(F)F)cc2)nc2nc(OC)c(-c3nnn[nH]3)cc21` (racemic) [Compound 53, [4-(difluoromethoxy)phenyl][1-ethyl-5-methoxy-6-(1H-1,2,3,4-tetrazol-5-yl)-1H-imidazo[4,5-b]pyridin-2-yl]phenylmethanol], the IC50 fell in the range of 1 to 10 nM in data set [1] and 10 to 100 nM in data set [2].
Consider `CCn1c(C(O)(c2ccccc2)c2nccs2)nc2nc(OC)c(-c3nnn[nH]3)cc21` (single isomer, unassigned) [Compound 32, [1-ethyl-5-methoxy-6-(1H-1,2,3,4-tetrazol-5-yl)-1H-imidazo[4,5-b]pyridin-2-yl](phenyl)(1,3-thiazol-2-yl)methanol], for which the IC50 in data set [1] is 0.01 to 1 nM. For the same compound, the MNT result in data set [3] is recorded as “A”.
For `CCc1c(C(O)(c2ccccc2)c2ccn(C)n2)nc2cc(OC)c(-c3nnn[nH]3)cn12` (single isomer, unassigned) [Compound 17, [3-Ethyl-7-methoxy-6-(1H-tetrazol-5-yl)-imidazo[1,2-a]pyridin-2-yl]-(1-methyl-1H-pyrazol-3-yl)-phenyl-methanol], the IC50 in data set [1] fell in the range of 100 to 10000 nM.
As for `CCn1c(C(O)(c2ccccc2C)c2ccccc2C)nc2nc(OC)c(-c3nnn[nH]3)cc21` [Compound 39, [1-ethyl-5-methoxy-6-(1H-1,2,3,4-tetrazol-5-yl)-1H-imidazo[4,5-b]pyridin-2-yl]bis(2-methylphenyl)methanol], the IC50 in data set [1] and in data set [2] was 10 to 100 nM in each case.
`CCn1c(C(O)(c2ccccc2)c2ccncc2)nc2nc(OC)c(-c3nnn[nH]3)cc21` (racemic) [Compound 43, [1-ethyl-5-methoxy-6-(1H-1,2,3,4-tetrazol-5-yl)-1H-imidazo[4,5-b]pyridin-2-yl](phenyl)(pyridin-4-yl)methanol]: the IC50 in data set [1] lay within 10 to 100 nM; in data set [2], 100 to 10000 nM.

By IC50 is commonly meant the concentration that gives 50% inhibition.
